Measurements published in patent US20240207162A1, “CARGO MOLECULE TRANSDUCTION DOMAIN RMAD1, VARIANT THEREOF, RECOMBINANT CARGO MOLECULE, AND METHOD FOR TRANSDUCING CARGO MOLECULE USING SAME” (REMEDI CO., LTD., priority 2021, published 2024).

Test system: RAW264.7 cells
Experiment: Introduction of SOD1 fusion proteins into RAW264.7 cells
Assay type: cell-based
Details: 0.5 uM, 2 hours
Method: SOD1, which is widely known as an antioxidant enzyme, was fused with a cell-penetrating peptide, and the cell-penetrating ability and activity maintenance were evaluated using RAW264.7 cells. The recombinant proteins SOD1, SOD1-TAT, and SOD1-RMAD1 were treated at the same concentration of 0.5 uM to RAW264.7 cells for 2 hours.

Which “level of cell penetration” value does the source give for “SOD1: antioxidant enzyme, recombinant control protein” here?
Its value is “did not penetrate cells”.
